In patent US20220319656A1, “AUTOMATED LITERATURE META ANALYSIS USING HYPOTHESIS GENERATORS AND AUTOMATED SEARCH” (TECHNION RESEARCH & DEVELOPMENT FOUNDATION, priority 2019, published 2022):

Key:
Fadu cells = assay type: cell-based; conditions: 72 h
Procedure: FaDu cell line were cultured in DMEM (Biological Industries) containing 10% fetal bovine serum, 2 mM L-Glutamine (Biological Industries) and 1% penicillin/streptomycin (Biological Industries). 5000 cells per well in 0.2 ml growth media were seeded in a 96-well plate and allowed to attach for 24 hours. After 24 hours the cells were exposed to logarithmic gradient of drugs (Gemcitabine, Sorafenib, Nilotinib, Carfilzomib, Nintedanib, Trametinib, Cabozantinib, Ponatinib, Infigratinib, Duvelisib). Cell survival for the cell lines was assayed after 3 days from adding the drugs. For the U20S and MG-63 by adding […] (5 mg/ml) in DDW to each well. After 3 hours, the solution was removed and 200 μl of DMSO was added. For the Fadu cell line by adding 30 μl of MTT solution (5 mg/ml) in DDW to each well. After 1 hour, the solution was removed and 100 μl of DMSO was added to dissolve the formazan crystals. Cell viability was evaluated by measuring the absorbance of each well using a Synergy H1 (BioTek) plate reader at 570 nm relative to control wells.

MG63 = assay: Cell viability assay (MTT), in vitro screen, MG63 cells; assay type: cell-based, Human; conditions: 72 h
Procedure: Human osteosarcoma MG-63, U2OS cell lines were kind gift from David Meiri, and head and neck FaDu cell line were a kind gift of Moshe Elkabetz. These cells were incubated under standard conditions of 37° C., 5% CO2, and 95% humidity. MG-63 and U2OS cells were cultured in RPMI-1640 (Biological Industries) containing 10% fetal bovine serum, 2 mM L-Glutamine (Biological Industries) and 1% penicillin/streptomycin (Biological Industries).
5000 cells per well in 0.2 ml growth media were seeded in a 96-well plate and allowed to attach for 24 hours. After 24 hours the cells were exposed to logarithmic gradient of drugs (Gemcitabine, Sorafenib, Nilotinib, Carfilzomib, Nintedanib, Trametinib, Cabozantinib, Ponatinib, Infigratinib, Duvelisib).
Cell survival for the cell lines was assayed after 3 days from adding the drugs. For the U20S and MG-63 by adding […] (5 mg/ml) in DDW to each well. After 3 hours, the solution was removed and 200 μl of DMSO was added. For the Fadu cell line by adding 30 μl of MTT solution (5 mg/ml) in DDW to each well. After 1 hour, the solution was removed and 100 μl of DMSO was added to dissolve the formazan crystals. Cell viability was evaluated by measuring the absorbance of each well using a Synergy H1 (BioTek) plate reader at 570 nm relative to control wells.

[1] = from a short literature review; cited from earlier work

SMILES	potency in the in-vitro screen (Fadu cells; Fadu cells, MTT)	sensitivity of cells to free drug and nanoparticle formulation (Fadu cells; Fadu cells, MTT)	cytotoxicity (Fadu cells; human) [%]	potency / growth inhibition in the in-vitro screen (MG63)	sensitivity of cells to free drug and nanoparticle formulation (MG63)	cytotoxicity (MG63; low nanomolar concentrations)	effectiveness versus chemotherapy combination of pemetrexed and cisplatin [1]
CC(C)C[C@H](NC(=O)[C@H](CCc1ccccc1)NC(=O)CN1CCOCC1)C(=O)N[C@@H](Cc1ccccc1)C(=O)N[C@@H](CC(C)C)C(=O)[C@@]1(C)CO1 [carfilzomib]	most potent molecule	less sensitive	64	most potent compound	extremely sensitive	more than 95%	–
C=CC(=O)Nc1cc(Nc2nccc(-c3cn(C)c4ccccc34)n2)c(OC)cc1N(C)CCN(C)C [osimertinib]	–	–	–	–	–	–	more effective
